pIC50: −log10 of the molar value.
Columns and labels:
Assay type in all cases: biochemical
KRAS G12S = target: T1, KRAS G12S (Homo sapiens, UniProt P01116, G12S); experiment: HTRF KRAS-SOS1 interaction assay, KRAS G12S; conditions: binned ≤2 μM / >2 μM, read-out: Inhibition of KRAS G12S (IC50)
T1 construct: made in house; host or cells: E. coli, e.g. BL21 (DE3)
Outline: (§1)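 GST-tagged KRAS (WT or mutant) with anti-GST-Eu donor and His-hSOS1 with anti-6His-XL665 acceptor were combined in 5 mM HEPES pH 7.4, 150 mM NaCl, 1 mM DTT, 0.05% BSA, 0.0025% Igepal. After ~10 min, HTRF was read (ex 337, em 620/665 nm); IC50 from 665/620 ratio.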

KRAS WT = target: T2, KRAS WT (Homo sapiens, UniProt P01116); experiment: HTRF KRAS-SOS1 interaction assay, wildtype KRAS; conditions: binned ≤2 μM / >2 μM, read-out: Inhibition of KRAS WT (IC50)
T2 construct: made in house; host or cells: E. coli, e.g. BL21 (DE3)
T2 sequence (P01116 1-188 isoform P01116-2): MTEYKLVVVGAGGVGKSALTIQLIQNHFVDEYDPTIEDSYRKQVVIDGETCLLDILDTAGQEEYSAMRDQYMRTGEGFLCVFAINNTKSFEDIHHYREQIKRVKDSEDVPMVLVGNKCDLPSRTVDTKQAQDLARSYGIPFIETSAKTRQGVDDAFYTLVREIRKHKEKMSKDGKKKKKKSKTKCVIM
Outline: as §1

KRAS G12V = target: T3, KRAS G12V (Homo sapiens, UniProt P01116, G12V); experiment: HTRF KRAS-SOS1 interaction assay, KRAS G12V; conditions: binned ≤2 μM / >2 μM, read-out: Inhibition of KRAS G12V (IC50)
T3 construct: made in house; host or cells: E. coli, e.g. BL21 (DE3)
T3 sequence (P01116 1-188 isoform P01116-2 G12V): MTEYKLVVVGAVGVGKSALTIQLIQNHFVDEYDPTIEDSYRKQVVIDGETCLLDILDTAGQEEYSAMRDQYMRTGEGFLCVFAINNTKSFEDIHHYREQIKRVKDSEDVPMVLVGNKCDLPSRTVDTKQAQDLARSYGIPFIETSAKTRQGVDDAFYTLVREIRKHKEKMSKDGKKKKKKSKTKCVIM
Outline: as §1

KRAS G12D = target: T4, KRAS G12D (Homo sapiens, UniProt P01116, G12D); experiment: HTRF KRAS-SOS1 interaction assay, KRAS G12D; conditions: binned ≤2 μM / >2 μM, read-out: Inhibition of KRAS G12D (IC50)
T4 construct: made in house; host or cells: E. coli, e.g. BL21 (DE3)
T4 sequence (P01116 1-188 isoform P01116-2 G12D): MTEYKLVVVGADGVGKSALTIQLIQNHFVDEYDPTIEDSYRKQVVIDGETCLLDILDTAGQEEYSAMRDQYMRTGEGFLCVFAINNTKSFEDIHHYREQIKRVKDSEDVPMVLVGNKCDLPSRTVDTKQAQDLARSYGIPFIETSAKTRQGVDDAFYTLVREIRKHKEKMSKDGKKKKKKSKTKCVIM
Outline: as §1

Measured: pIC50

T1 sequence (P01116 1-188 isoform P01116-2 G12S): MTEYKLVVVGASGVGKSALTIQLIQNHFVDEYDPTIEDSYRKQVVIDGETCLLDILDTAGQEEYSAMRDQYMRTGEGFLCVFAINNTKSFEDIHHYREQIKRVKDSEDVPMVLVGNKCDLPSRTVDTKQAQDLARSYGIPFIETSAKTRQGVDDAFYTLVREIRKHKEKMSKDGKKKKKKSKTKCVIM

C[C@H](c1cc(Cl)cnc1N)N1CCOc2c(C(F)(F)F)c(-c3ccc(F)c4sc(N)c(C#N)c34)c(F)c3nc(OCC4(CN5CCC6(CC5)CC6(F)F)CC4)nc1c23 [Compound 679, 2-amino-4-(4-((R)-1-(2-amino-5-chloropyridin-3-yl)ethyl)-2-((1-((1,1-difluoro-6-azaspiro[2.5]octan-6-yl)methyl)cyclopropyl)methoxy)-10-fluoro-8-(trifluoromethyl)-5,6-dihydro-4H-[1,4]oxazepino[5,6,7-de]quinazolin-9-yl)-7-fluorobenzo[b]thiophene-3-carbonitrile]
≥ 5.70: all assays above

C[C@H](Oc1nc2c3c(c(C(F)(F)F)c(-c4ccc(F)c5sc(N)c(C#N)c45)c(F)c3n1)OCCN2[C@H](C)c1cccnc1N)[C@@H]1C[C@@H](F)CN1C [Compound 890, 2-amino-4-(4-((R)-1-(2-aminopyridin-3-yl)ethyl)-10-fluoro-2-((S)-1-((2S,4R)-4-fluoro-1-methylpyrrolidin-2-yl)ethoxy)-8-(trifluoromethyl)-5,6-dihydro-4H-[1,4]oxazepino[5,6,7-de]quinazolin-9-yl)-7-fluorobenzo[b]thiophene-3-carbonitrile]
≥ 5.70: all assays above

CC[S+]([O-])[C@@H]1CN2CCC[C@@]2(COc2nc3c4c(c(Cl)c(-c5ccc(F)c6sc(N)c(C#N)c56)c(F)c4n2)OCCN3[C@H](C)c2cccnc2N)C1 (mixture of isomers) [Compound 780, 2-amino-4-(4-((R)-1-(2-aminopyridin-3-yl)ethyl)-8-chloro-2-(((2S,7aS)-2-(ethylsulfinyl)tetrahydro-1H-pyrrolizin-7a(5H)-yl)methoxy)-10-fluoro-5,6-dihydro-4H-[1,4]oxazepino[5,6,7-de]quinazolin-9-yl)-7-fluorobenzo[b]thiophene-3-carbonitrile]
≥ 5.70: all assays above

CC(=O)c1c(F)ccc2cc(O)cc(-c3nc4c5c(nc(OC[C@@H]6CCCN6C)nc5c3F)N(C(C)c3cccnc3N)CCO4)c12 (mixture of isomers) [Compound 801, 1-(8-(10-(1-(2-aminopyridin-3-yl)ethyl)-4-fluoro-2-(((S)-1-methylpyrrolidin-2-yl)methoxy)-9,10-dihydro-8H-7-oxa-1,3,6,10-tetraazacyclohepta[de]naphthalen-5-yl)-2-fluoro-6-hydroxynaphthalen-1-yl)ethan-1-one]
≥ 5.70: all assays above

N#Cc1c(N)sc2c(F)ccc(-c3c(C(F)(F)F)c4c5c(nc(OC[C@@]67CCCN6C[C@@]6(CC6(F)F)C7)nc5c3F)N([C@@H](c3cccnc3N)C(F)F)CCO4)c12 (single isomer, unassigned) [Compound 843]
≥ 5.70: all assays above

C#CCC(c1cccnc1N)N1CCOc2c(Cl)c(-c3ccc(F)c4sc(N)c(C#N)c34)c(F)c3nc(OC[C@@]45CCCN4C[C@H](F)C5)nc1c23 (single isomer, unassigned) [Compound 764]
≥ 5.70: all assays above

C#Cc1c(F)ccc2cc(O)cc(-c3nc4c5c(nc(O[C@@H](C)[C@@H]6CCCN6C)nc5c3F)N([C@H](C)c3cccnc3N)CCO4)c12 (single isomer, unassigned) [Compound 779]
≥ 5.70: all assays above

Source: US12668600B2 (Kumquat Biosciences Inc., priority 2023, dated 2026)
